Values of other authors in patent US20120021445A1, “Pluripotent Stem Cells for Drug Induced Myopathy and Malignant Hyperthermia” (priority 2010, published 2012).

Tests used:
[1] = rhabdomyolysis defined as acute elevation of CK (>15 000 ULN); unit not given

SMILES	reported incidence of rhabdomyolysis [1]	lack of efficacy in malignant hyperthermia patients
CC(C)c1c(C(=O)Nc2ccccc2)c(-c2ccccc2)c(-c2ccc(F)cc2)n1CC[C@@H](O)C[C@@H](O)CC(=O)O [atrovarstatin]	0.04	
O=C1CN(/N=C/c2ccc(-c3ccc([N+](=O)[O-])cc3)o2)C(O)=N1 [dantrolene]		up to 5%
CC[C@H](C)C(=O)O[C@H]1C[C@@H](C)C=C2C=C[C@H](C)[C@H](CC[C@@H]3C[C@@H](O)CC(=O)O3)[C@H]21 [lovostatin]	0.19	
CC[C@H](C)C(=O)O[C@H]1C[C@H](O)C=C2C=C[C@H](C)[C@H](CC[C@@H](O)C[C@@H](O)CC(=O)O)[C@H]21 [pravastatin]	0.04	
